Key:
[1] = system: Mus musculus; experiment: Toxicity in Balb/c mouse xenografted with human NCI-H1975 cells assessed as induction of vascular irritation at 5 to 20 mg/kg, iv treated every 2 days for 9 days; format: organism-based; details: in vivo
[2] = system: NCI-H1975; experiment: Cell cycle arrest in human NCI-H1975 cells assessed as accumulation at G2/M phase at 10 uM after 24 hrs by propidium iodide staining-based flow cytometric analysis (reference value: 20.11%); format: functional
[3] = system: NCI-H1975; experiment: Cell cycle arrest in human NCI-H1975 cells assessed as increase in accumulation at G0/G1 phase after 24 hrs by propidium iodide staining-based flow cytometric analysis; format: functional
[4] = system: NCI-H1975; experiment: Potency index, ratio of IC50 for magnolol to IC50 for test compound for antiproliferative activity against human NCI-H1975 cells after 72 hrs by MTT assay; format: functional
[5] = system: NCI-H1975; experiment: Potency index, ratio of IC50 for honokiol to IC50 for test compound for antiproliferative activity against human NCI-H1975 cells after 72 hrs by MTT assay; format: functional
[6] = system: NCI-H1975; experiment: Induction of apoptosis in human NCI-H1975 cells assessed as early apoptotic cells at 20 uM after 48 hrs by annexin V/FITC-propidium iodide staining-based flow cytometric method ( Rvb = 6.09%); format: functional
[7] = system: Mus musculus; experiment: Toxicity in Balb/c mouse implanted with mouse C26 cells assessed as change in body weight at 100 mg/kg, po qd treated for 10 days and measured every 2 days (RVB = 16.4%); format: organism-based; details: in vivo
[8] = system: NCI-H1975; experiment: Cell cycle arrest in human NCI-H1975 cells assessed as accumulation at G2/M phase at 20 uM after 24 hrs by propidium iodide staining-based flow cytometric analysis (reference value: 20.11%); format: functional
[9] = system: Mus musculus; experiment: Toxicity in Balb/c mouse xenografted with human NCI-H1975 cells assessed as mouse death at 5 to 20 mg/kg, iv treated every 2 days for 9 days and measured every 2 days after compound dosing; format: organism-based; details: in vivo
[10] = system: NCI-H1975; experiment: Antitumor activity against human NCI-H1975 cells xenografted in Balb/c mouse assessed as change in tumor mass at 5 mg/kg, iv treated every 2 days for 9 days and measured every 2 days after compound dosing relative to control; format: functional
[11] = Antitumor activity against mouse C26 cells implanted in Balb/c mouse assessed as tumor growth inhibition at 100 mg/kg, po qd and measured every 2 days relative to control; format: functional; details: 48 h, read-out: TGI
[12] = system: HCC827; experiment: Potency index, ratio of IC50 for magnolol to IC50 for test compound for antiproliferative activity against human HCC827 cells after 72 hrs by MTT assay; format: functional
[13] = system: NCI-H1975; experiment: Cell cycle arrest in human NCI-H1975 cells assessed as accumulation at G0/G1 phase at 5 uM after 24 hrs by propidium iodide staining-based flow cytometric analysis (reference value: 56.11%); format: functional
[14] = system: PC-9; experiment: Antiproliferative activity against human PC9 cells after 72 hrs by MTT assay; format: functional, cell-based; details: PC-9, 72 h
[15] = system: NCI-H1975; experiment: Cell cycle arrest in human NCI-H1975 cells assessed as accumulation at S phase at 20 uM after 24 hrs by propidium iodide staining-based flow cytometric analysis (reference value: 22.93%); format: functional
[16] = system: NCI-H1975; experiment: Antitumor activity against human NCI-H1975 cells xenografted in Balb/c mouse assessed as change in tumor mass at 20 mg/kg, iv treated every 2 days for 9 days and measured every 2 days after compound dosing relative to control; format: functional
[17] = system: Mus musculus; experiment: Toxicity in Balb/c mouse xenografted with human NCI-H1975 cells assessed as effect on liver size at 5 to 20 mg/kg, iv treated every 2 days for 9 days; format: organism-based; details: in vivo
[18] = system: NCI-H1975; experiment: Antitumor activity against human NCI-H1975 cells xenografted in Balb/c mouse assessed as change in tumor mass at 10 mg/kg, po qd treated for 18 days and measured every 2 days after compound dosing relative to control; format: functional
[19] = system: NCI-H1975; experiment: Induction of apoptosis in human NCI-H1975 cells assessed as viable cells at 10 uM after 48 hrs by annexin V/FITC-propidium iodide staining-based flow cytometric method ( Rvb = 82.5%); format: functional; details: NCI-H1975, 48 h, read-out: Activity
[20] = system: Mus musculus; experiment: Toxicity in Balb/c mouse xenografted with human NCI-H1975 cells assessed as effect on heart size at 5 to 20 mg/kg, iv treated every 2 days for 9 days; format: organism-based; details: in vivo
[21] = system: Mus musculus; experiment: Toxicity in Balb/c mouse xenografted with human NCI-H1975 cells assessed as change in body weight at 10 mg/kg, iv treated every 2 days for 9 days and measured every 2 days after compound dosing ( Rvb = 2.89%); format: organism-based; details: in vivo
[22] = system: NCI-H1975; experiment: Induction of apoptosis in human NCI-H1975 cells assessed as increase in cleaved caspase-3 level after 48 hrs by Western blot analysis; format: functional, cell-based
[23] = system: NCI-H441; experiment: Antiproliferative activity against human H441 cells after 72 hrs by MTT assay; format: functional, cell-based; details: NCI-H441, 72 h
[24] = system: NCI-H1975; experiment: Induction of apoptosis in human NCI-H1975 cells assessed as early apoptotic cells at 5 uM after 48 hrs by annexin V/FITC-propidium iodide staining-based flow cytometric method ( Rvb = 6.09%); format: functional
[25] = system: Mus musculus; experiment: Toxicity in Balb/c mouse xenografted with human NCI-H1975 cells assessed as change in body weight at 30 mg/kg, po qd treated for 18 days and measured every 2 days after compound dosing ( Rvb = 2.89%); format: organism-based; details: in vivo
[26] = system: NCI-H1975; experiment: Induction of apoptosis in human NCI-H1975 cells assessed as necrotic cells at 10 uM after 48 hrs by annexin V/FITC-propidium iodide staining-based flow cytometric method ( Rvb = 1.01%); format: functional
[27] = system: NCI-H1975; experiment: Induction of apoptosis in human NCI-H1975 cells assessed as increase in cleaved PARP level after 48 hrs by Western blot analysis; format: functional, cell-based
[28] = system: NCI-H1975; experiment: Induction of apoptosis in human NCI-H1975 cells assessed as late apoptotic cells at 10 uM after 48 hrs by annexin V/FITC-propidium iodide staining-based flow cytometric method ( Rvb = 10.4%); format: functional
[29] = system: Mus musculus; experiment: Toxicity in Balb/c mouse xenografted with human NCI-H1975 cells assessed as effect on kidney size at 5 to 20 mg/kg, iv treated every 2 days for 9 days; format: organism-based; details: in vivo
[30] = system: Mus musculus; experiment: Toxicity in Balb/c mouse xenografted with human NCI-H1975 cells assessed as effect on liver morphology at 5 to 20 mg/kg, iv treated every 2 days for 9 days; format: organism-based; details: in vivo
[31] = system: Mus musculus; experiment: Toxicity in Balb/c mouse xenografted with human NCI-H1975 cells assessed as change in body weight at 5 mg/kg, iv treated every 2 days for 9 days and measured every 2 days after compound dosing ( Rvb = 2.89%); format: organism-based; details: in vivo
[32] = system: Mus musculus; experiment: Toxicity in Balb/c mouse xenografted with human NCI-H1975 cells assessed as effect on kidney morphology at 5 to 20 mg/kg, iv treated every 2 days for 9 days; format: organism-based; details: in vivo
[33] = system: NCI-H1975; experiment: Induction of apoptosis in human NCI-H1975 cells assessed as late apoptotic cells at 5 uM after 48 hrs by annexin V/FITC-propidium iodide staining-based flow cytometric method ( Rvb = 10.4%); format: functional
[34] = system: NCI-H460; experiment: Antiproliferative activity against human H460 cells after 72 hrs by MTT assay; format: functional, cell-based; details: NCI-H460, 72 h
[35] = system: NCI-H1975; experiment: Cell cycle arrest in human NCI-H1975 cells assessed as accumulation at S phase at 5 uM after 24 hrs by propidium iodide staining-based flow cytometric analysis (reference value: 22.93%); format: functional

## C=CCc1ccc(O)c(-c2cc(CC=C)cc(CN3CCC(N)CC3)c2O)c1
[1]
  Activity: Non-Toxic
[2]
  Activity: 12.73%
[3]
  Activity: Dose-dependent effect
[4]
  Ratio IC50: 8
[5]
  Ratio IC50: 4
[6]
  Activity: 46.8%
[7]
  Activity: -9.3%
[8]
  Activity: 6.13%
[9]
  Activity: Non-Toxic
[10]
  Activity: 49.2%
[11]
  inhibition in vivo at 100 mg/kg: 47.9%
[12]
  Ratio IC50: 8
[13]
  Activity: 62.26%
[14]
  IC50: 12.5 µM
[15]
  Activity: 12.63%
[16]
  Activity: 65.8%
[17]
  Activity: Non-Toxic
[18]
  Activity: 46.3%
[19]
  viability at 10 µM: 56.7%
[20]
  Activity: Non-Toxic
[21]
  Activity: 8.89%
[22]
  Activity: Dose-dependent effect
[23]
  IC50: 5.63 µM
[24]
  Activity: 6.68%
[25]
  Activity: 8.85%
[26]
  Activity: 0.4%
[27]
  Activity: Dose-dependent effect
[28]
  Activity: 32.8%
[29]
  Activity: Non-Toxic
[30]
  Activity: Non-Toxic
[31]
  Activity: 4.4%
[32]
  Activity: Non-Toxic
[33]
  Activity: 26.3%
[34]
  IC50: 5.98 µM
[35]
  Activity: 22.39%

— ChEMBL document CHEMBL4152332, “Discovery and synthesis of novel magnolol derivatives with potent anticancer activity in non-small cell lung cancer” (Eur J Med Chem, 2018)
